Reference: patent US20230280220A1, “Benzimidazole Derivative Compounds and Uses Thereof” (Pfizer Inc., priority 2019, published 2023)

Target: ITK enzyme (ITK FL, N-Flag and C-His tagged) (Homo sapiens (Human), UniProt Q08881)
Experiment: ITK enzyme assay (IL-2-inducible T-cell kinase activity)
Format: biochemical
Details: geometric mean of count n
Experimental: IL-2-Inducible T-Cell Kinase (ITK) Activity, IC50 (nM)
ITK activity was determined by measuring the effect of a test compound in an ITK enzyme assay.
1.0 M HEPES Buffer pH 7.5 solution was prepared as follows: 238.3 g HEPES free acid (Sigma) and 800 mL of water were combined, and the mixture was stirred until complete dissolution. The pH was adjusted to 7.5 via titration with 5N NaOH and the volume adjusted to 1000 mL. The solution was filtered and sterilized.
ITK assay buffer was prepared as follows: 50 mL of HPLC-grade water was treated with 2 mL of 1.0 M HEPES Buffer, 500 μL of 2% Gelatin (Sigma), 1.0 mL of aqueous MgCl2 solution (1.0 M), and 1.0 mL of aqueous glutathione solution (0.5 M), and the solution was mixed. The solution was brought to 99 mL in a graduated cylinder by addition of water and sterilized through a 0.2 μm filter. 0.1 mL of Brij-35™ Surfact-Amps™ Detergent Solution (10% w/v aqueous solution, ThermoFisher) and 1.0 mL of ATP (Teknova, 100 mM) were added and the solution was mixed.
The resulting solution was stored on ice. 30 Minutes prior to use, the enzyme solution was removed from ice and equilibrated to RT by incubation in a RT water bath.
Preparation of 4×ITK substrate solution was as follows: 50 mL of ITK assay buffer was treated with 100 μL of BTK peptide (China Peptide Company, 2 mM stock solution in DMSO). The tube was capped, mixed by gently inverting the tube, and then stored on ice. 30 Minutes prior to use, the substrate solution was removed from ice and equilibrated to RT by incubation in a RT water bath.
At the time of assay, 7.5 μL of the 1.33×ITK enzyme solution was added to plate wells containing 0.1 μL of varying concentrations of test compound in DMSO. The plate was incubated 30 min at RT. The plate wells were each treated with 2.5 uL of the 4×ITK substrate solution and the plate was sealed (TopSeal™, Perkin Elmer). The plate was spun at 1000 rpm for 30 sec and then incubated for 60 min at RT. The seal was removed, and each well was treated with 10 μL of Stop/Detect Buffer (20 mM HEPES pH 7.5, 0.01% gelatin, 1 nM LANCE PT66 (Perkin Elmer), 16.5 μg/ml Surelight APC (Perkin Elmer), 10 mM EDTA, 250 mM NaCl). The plate was again covered and was spun at 1000 rpm for 30 seconds. The plate was allowed to incubate overnight at RT and in a closed carrier to reduce dehydration. The seal was removed, and the fluorescence was read with a plate reader with an excitation wavelength of […] and an emission wavelength of 615 nm.

Sequence of ITK enzyme (ITK FL, N-Flag and C-His tagged) (Q08881 whole entry): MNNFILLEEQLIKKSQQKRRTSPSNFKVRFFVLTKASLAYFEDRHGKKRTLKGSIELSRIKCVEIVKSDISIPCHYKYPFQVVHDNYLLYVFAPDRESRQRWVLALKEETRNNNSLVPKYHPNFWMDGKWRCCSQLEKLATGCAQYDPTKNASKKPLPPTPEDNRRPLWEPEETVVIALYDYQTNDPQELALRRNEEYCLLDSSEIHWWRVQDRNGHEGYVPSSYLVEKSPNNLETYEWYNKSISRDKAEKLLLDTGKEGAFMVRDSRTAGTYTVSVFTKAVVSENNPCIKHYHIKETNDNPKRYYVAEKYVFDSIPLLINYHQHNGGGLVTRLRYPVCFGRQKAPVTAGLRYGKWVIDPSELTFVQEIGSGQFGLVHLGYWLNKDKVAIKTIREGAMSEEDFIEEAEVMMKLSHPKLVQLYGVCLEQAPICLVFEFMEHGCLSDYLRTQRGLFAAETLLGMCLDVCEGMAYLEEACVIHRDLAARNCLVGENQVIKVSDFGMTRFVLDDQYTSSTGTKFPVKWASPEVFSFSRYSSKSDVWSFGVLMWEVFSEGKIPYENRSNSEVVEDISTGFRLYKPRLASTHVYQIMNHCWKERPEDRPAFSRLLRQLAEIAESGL

| Structure (SMILES) | IC50 |
| --- | --- |
| COCCOc1cc2[nH]c(-c3n[nH]c4c3C[C@@H]3C[C@]3(C)C4)nc2cc1N(C)C(=O)[C@H](C)N1CCOCC1 [Example 49, (S)—N-(6-(2-methoxyethoxy)-2-((4aS,5aR)-5a-methyl-1,4,4a,5,5a,6-hexahydrocyclopropa[f]indazol-3-yl)-1H-benzo[d]imidazol-5-yl)-N-methyl-2-morpholinopropanamide] | 12 nM |
| Cc1cc(N(C)C(=O)[C@H](C)N2CCOCC2)cc2nc(-c3n[nH]c4c3C[C@@H]3C(F)(F)[C@]3(C)C4)[nH]c12 [Example 51, (S)—N-(2-((4aS,5aR)-5,5-difluoro-5a-methyl-1,4,4a,5,5a,6-hexahydrocyclopropa[f]indazol-3-yl)-7-methyl-1H-benzo[d]imidazol-5-yl)-N-methyl-2-morpholinopropanamide] | 2 nM |
| Cc1cc2[nH]c(-c3n[nH]c4c3C[C@@H]3C[C@]3(C)C4)nc2cc1NC(=O)[C@H](C)N1CCOCC1 [Example 52, (S)—N-(6-methyl-2-((4aS,5aR)-5a-methyl-1,4,4a,5,5a,6-hexahydrocyclopropa[f]indazol-3-yl)-1H-benzo[d]imidazol-5-yl)-2-morpholinopropanamide] | 121 nM |
| CN(C(=O)CC1CCOCC1)c1cc2nc(-c3n[nH]c4c3C[C@@H]3C[C@]3(C)C4)[nH]c2cc1C#N [Example 54, N-(6-cyano-2-((4aS,5aR)-5a-methyl-1,4,4a,5,5a,6-hexahydrocyclopropa[f]indazol-3-yl)-1H-benzo[d]imidazol-5-yl)-N-methyl-2-(tetrahydro-2H-pyran-4-yl)acetamide] | 272 nM |
| C[C@@H](C(=O)N(C)c1cc(C#N)c2[nH]c(-c3n[nH]c4c3C[C@@H]3C[C@]3(C)C4)nc2c1)C1CCOCC1 [Example 55, (R)—N-(7-cyano-2-((4aS,5aR)-5a-methyl-1,4,4a,5,5a,6-hexahydrocyclopropa[f]indazol-3-yl)-1H-benzo[d]imidazol-5-yl)-N-methyl-2-(tetrahydro-2H-pyran-4-yl)propanamide] | 5 nM |

Continued, values first:

| IC50 | Structure (SMILES) |
| --- | --- |
| 34 nM | C[C@@H](C(=O)N(C)c1cc(C(F)(F)F)c2[nH]c(-c3n[nH]c4c3C[C@@H]3C[C@]3(C)C4)nc2c1)N1CCOCC1 [Example 41, (S)—N-methyl-N-(2-((4aS,5aR)-5a-methyl-1,4,4a,5,5a,6-hexahydrocyclopropa[f]indazol-3-yl)-7-(trifluoromethyl)-1H-benzo[d]imidazol-5-yl)-2-morpholinopropanamide] |
| 38 nM | COCc1cc(N(C)C(=O)[C@H](C)N2CCOCC2)cc2nc(-c3n[nH]c4c3C[C@@H]3C[C@]3(C)C4)[nH]c12 [Example 42, (S)—N-(7-(methoxymethyl)-2-((4aS,5aR)-5a-methyl-1,4,4a,5,5a,6-hexahydrocyclopropa[f]indazol-3-yl)-1H-benzo[d]imidazol-5-yl)-N-methyl-2-morpholinopropanamide] |
| 16 nM | C[C@@H](C(=O)N(C)c1cc(Cl)c2[nH]c(-c3n[nH]c4c3C[C@@H]3C[C@]3(C)C4)nc2c1)N1CCOCC1 [Example 43, (S)—N-(7-chloro-2-((4aS,5aR)-5a-methyl-1,4,4a,5,5a,6-hexahydrocyclopropa[f]indazol-3-yl)-1H-benzo[d]imidazol-5-yl)-N-methyl-2-morpholinopropanamide] |
| 28 nM | CCc1cc(N(C)C(=O)[C@H](C)N2CCOCC2)cc2nc(-c3n[nH]c4c3C[C@@H]3C[C@]3(C)C4)[nH]c12 [Example 44, (S)—N-(7-ethyl-2-((4aS,5aR)-5a-methyl-1,4,4a,5,5a,6-hexahydrocyclopropa[f]indazol-3-yl)-1H-benzo[d]imidazol-5-yl)-N-methyl-2-morpholinopropanamide] |
| 17 nM | C[C@@H](C(=O)N(C)c1cc(CO)c2[nH]c(-c3n[nH]c4c3C[C@@H]3C[C@]3(C)C4)nc2c1)N1CCOCC1 [Example 45, (S)—N-(7-(hydroxymethyl)-2-((4aS,5aR)-5a-methyl-1,4,4a,5,5a,6-hexahydrocyclopropa[f]indazol-3-yl)-1H-benzo[d]imidazol-5-yl)-N-methyl-2-morpholinopropanamide] |
| 29 nM | Cc1c(F)c(N(C)C(=O)[C@H](C)N2CCOCC2)cc2nc(-c3n[nH]c4c3C[C@@H]3C[C@]3(C)C4)[nH]c12 [Example 47, (S)—N-(6-fluoro-7-methyl-2-((4aS,5aR)-5a-methyl-1,4,4a,5,5a,6-hexahydrocyclopropa[f]indazol-3-yl)-1H-benzo[d]imidazol-5-yl)-N-methyl-2-morpholinopropanamide] |
| 17 nM | C[C@@H](C(=O)N(C)c1cc(C(F)F)c2[nH]c(-c3n[nH]c4c3C[C@@H]3C[C@]3(C)C4)nc2c1)N1CCOCC1 [Example 48, (S)—N-(7-(difluoromethyl)-2-((4aS,5aR)-5a-methyl-1,4,4a,5,5a,6-hexahydrocyclopropa[f]indazol-3-yl)-1H-benzo[d]imidazol-5-yl)-N-methyl-2-morpholinopropanamide] |
| 16 nM | Cc1cc(N(C)C(=O)[C@H](C)N2CCOCC2)cc2nc(-c3n[nH]c4c3C[C@@H]3C[C@]3(C)C4)[nH]c12 [Example 50, (S)—N-methyl-N-(7-methyl-2-((4aS,5aR)-5a-methyl-1,4,4a,5,5a,6-hexahydrocyclopropa[f]indazol-3-yl)-1H-benzo[d]imidazol-5-yl)-2-morpholinopropanamide] |
